Like-named read-outs stand apart in the source and are kept apart here.
What was measured:
[1] = system: Fusarium nivale; assay: Treatment of rye seeds against Fusarium nivale; assay type: in vivo; settings: 100 g/100 kg; about 4 weeks
Procedure: Treatment of rye seeds against Fusarium nivale
Rye seeds with a natural infestation by Fusarium nivale were seeded in earth filled pots and left for germination at about 6° C. Part of the seeds was treated before seeding with the active agents as appears from the subsequent table and part was untreated. After emergence of the seedlings the plants were illuminated with artificial light for 12 hours each day. After about 4 weeks the degree of infestation was determined in percentages. The fungicidal activity was calculated on the basis of the following formula: [formula]
The active agents were used in the form of 20% concentration compositions.

[2] = system: Tilletia caries; assay: Treatment of oat seeds infested with Tilletia caries (spore germination); assay type: in vivo
[3] = system: Helminthosporium gram; settings: about 5 weeks
Procedure: Treatment of barley seeds infested with Helminthosporium gram
After emergence, the plants were subjected to illumination for 12 hours per day. After about 5 weeks the infested plants were counted and the total number of plants for each test were also counted. The active agents tested were used as pulverulent compositions.

[4] = system: Pythium ultimum; assay: Threshold concentration test for use of the compounds against Pythium ultimum (infested soil, garden peas); assay type: in vivo; design: key to root evaluation (1-4): 4: white roots without fungous necrosis; 3: white roots, minor fungous necrosis; 2: brown roots, already more pronounced fungous necrosis; 1: heavy fungous necrosis, roots rotted; settings: for root evaluation (1-4): 3 weeks; for number of sound peas: 20 grains per dish, 3 weeks at 20-24° C.
In short: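 Pulverulent agents at 20% concentration mixed evenly into soil heavily infested with Pythium ultimum, then garden peas ('Wunder von Kelvedon', 20 per dish) sown at once. After three weeks at 20–24 °C in a hothouse, sound peas counted and roots scored on a 1–4 scale.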

[5] = system: Septoria nodorum; assay: Treatment of oat seeds against Septoria nodorum; assay type: in vivo; settings: 50 g active agent/100 kg seeds; 4 weeks
Procedure: Effects of the treatment of oat seeds against Septoria nodorum
They were then seeded on a moist substrate for germination. As a control untreated seeds were likewise seeded. At about 6° C. the seed was incubated in an air-conditioned chamber until after 4 weeks the proportion of diseased seeds could be determined and the activity of the fungicidal compounds was calculated on the basis of the following formula: [formula]
The active agents were applied in the form of 20% concentration pulverulent compositions.

[6] = system: Piricularia oryzae; assay type: in vivo; settings: 5 days
[7] = system: Helminthosporium gramineum; assay: Seed treatment in open field tests for infestation by Helminthosporium gramineum (barley); assay type: in vivo; settings: summer barley, about 3 months
Procedure: Seed treatment in open field tests for infestation by Helminthosporium gramineum
The active agents were used in the form of pulverulent compositions. After about 8 months in case of winter barley and after about 3 months in case of summer barley the infested plants were counted and the activity was calculated by the formula [formula]

[8] = system: Plasmopara viticola; assay: Prophylactic leaf treatment of grapevines in the hothouse against Plasmopara viticola; assay type: in vivo
In short: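 Grapevines (5–8 leaves) sprayed to runoff with compound as 20% spray powder, then after drying inoculated on leaf undersides with sporangial suspension (~20,000/ml). Incubated at 22–24 °C, saturated humidity, 3–4 days normal humidity (30–70%), then one day saturated; activity from mean % infested leaf area per treatment.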

[9] = system: Penicillium digitatum; assay: Inhibition of fungus in a nutrient solution: Penicillium digitatum; assay type: cell-based; settings: 6 days at 21-23° C.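 Further: 0 means no fungus growth and higher grades mean more surface covered.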
[10] = system: Botrytis cinerea; assay: Inhibition of fungus in a nutrient solution: Botrytis cinerea; assay type: cell-based; settings: 6 days at 21-23° C.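 Further: 0 means no fungus growth and higher grades mean more surface covered.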
[11] = system: Fusarium avenaceum; assay: Inhibition of fungus in a nutrient solution: Fusarium avenaceum; assay type: cell-based; settings: 6 days at 21-23° C.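 Further: 0 means no fungus growth and higher grades mean more surface covered.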
Procedure: Inhibition of fungus in a nutrient solution
20 ml of a nutrient solution of grape juice and water (1:1) were filled into a glass vial of a 100 ml capacity and were mixed with the pulverulent active agents which appear from the subsequent table. Thereafter, the solution was inoculated with conidia (spores) of the test fungi.
After an incubation time of 6 days at 21° to 23° C. the fungus development on the surface of the nutrient solution was evaluated. The test fungi used were the following: Penicillium digitatum, Botrytis cinerea, Alternaria solani, Fusarium avenaceum.
The evaluation was carried out at a scale from 0 to 5 as follows: […]

[12] = system: Alternaria solani; assay: Inhibition of fungus in a nutrient solution: Alternaria solani; assay type: cell-based; settings: 6 days at 21-23° C.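 Further: 0 means no fungus growth and higher grades mean more surface covered.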
[13] = system: Tilletia caries; assay: Seed treatment in open field tests regarding infestation by Tilletia caries (oats); assay type: in vivo; settings: winter oats; 100 g active agent/100 kg; about 9 months
[14] = concentration of active agent 0.1 (percentages)
[15] = 25 g active agent/100 kg barley
[16] = 50 g active agent/100 kg barley
[17] = 100 g active agent/100 kg barley
[18] = concentration of active agent 0.025 (unit not given)

Compound | % activity ([2]; 10 g active agent per 100 kg) | % activity ([2]; 20 g active agent per 100 kg) | % activity ([3]; 10 g active agent per 100 kg) | % activity ([3]; 20 g active agent per 100 kg) | % activity ([3]; 50 g active agent per 100 kg) | root evaluation (1-4) ([4]; 20 mg/l soil) | number of sound peas ([4]; 20 mg/l soil) | root evaluation (1-4) ([4]; 40 mg/l soil) | number of sound peas ([4]; 40 mg/l soil) | root evaluation (1-4) ([4]; 80 mg/l soil) | number of sound peas ([4]; 80 mg/l soil) | % activity [5] | % activity ([2]; 50 g active agent per 100 kg) | % activity [6, 14] | % activity [7, 15] | % activity [7, 16] | % activity [7, 17] | % activity [8, 18] | also measured
CCS(=O)(=O)c1nnc(C(N)=O)s1 [5-ethylsulfonyl-1,3,4-thiadiazole-2-carboxamide] | 93% | 100% | 97% | 100% | 100% | 2 | 18 | 4 | 18 | 4 | 20 | – | – | – | – | – | – | – | % activity [1]: 99.2%; % activity ([2]; 5 g active agent per 100 kg): 87%
CCS(=O)(=O)c1nnc(C(=O)NCCOC)s1 [5-ethylsulfonyl-1,3,4-thiadiazole-2-carboxylic acid-(2-methoxyethyl)-amide] | 100% | 100% | 100% | 99% | 100% | 1 | 13 | 4 | 16 | 4 | 16 | 86% | 100% | 90% | 92% | 98% | 99.8% | – | –
CCS(=O)(=O)c1nnc(C(=O)NCCCOC)s1 [5-ethylsulfonyl-1,3,4-thiadiazole-2-carboxylic acid-(3-methoxypropyl)-amide] | 100% | 100% | 99% | 99% | 100% | 1 | 11 | 4 | 18 | 4 | 17 | 86% | 100% | 97% | 94% | 96% | 100% | 90% | –
CCCCNC(=O)c1nnc(S(=O)(=O)CC)s1 [5-ethylsulfonyl-1,3,4-thiadiazole-2-carboxylic acid-butylamide] | 100% | 100% | – | – | – | 1 | 8 | 4 | 16 | 4 | 20 | – | 100% | 97% | – | – | 100% | – | fungus development on the surface of the nutrient solution (0-5) ([9]; 0.002%): 1; fungus development on the surface of the nutrient solution (0-5) ([9]; 0.004%): 0; fungus development on the surface of the nutrient solution (0-5) ([10]; 0.002%): 2 (5 to 10% of the surface covered by the fungus turf); fungus development on the surface of the nutrient solution (0-5) ([10]; 0.004%): 0; fungus development on the surface of the nutrient solution (0-5) ([11]; 0.002%): 1; fungus development on the surface of the nutrient solution (0-5) ([11]; 0.004%): 0; fungus development on the surface of the nutrient solution (0-5) ([12]; 0.002%): 1; fungus development on the surface of the nutrient solution (0-5) ([12]; 0.004%): 0
CCS(=O)(=O)c1nnc(C(=O)NC(C)C)s1 [5-ethylsulfonyl-1,3,4-thiadiazole-2-carboxylic acid-isopropylamide] | 100% | 100% | 95% | 98% | 100% | 3 | 16 | 3 | 15 | 4 | 16 | 86% | 100% | 99% | 96% | 100% | 99.8% | 92% | –
CCCNC(=O)c1nnc(S(=O)(=O)CC)s1 [5-ethylsulfonyl-1,3,4-thiadiazole-2-carboxylic acid-propylamide] | 100% | 100% | – | – | 92% | – | – | – | – | – | – | 81% | 100% | – | 95% | 99.3% | 100% | – | –
CS(=O)(=O)c1nnc(C(=O)NCC2CCCCC2)s1 [5-methylsulfonyl-1,3,4-thiadiazole-2-carboxylic acid cyclohexylmethylamide] | 99% | 100% | – | – | – | – | – | – | – | – | – | – | – | 80% | – | – | – | 97% | % activity ([8]; concentration of active agent 0.001 (unit not given)): 76%; % activity ([8]; concentration of active agent 0.005 (unit not given)): 88%; % activity ([2]; 5 g active agent per 100 kg): 86%; % activity ([6]; concentration of active agent 0.02 (percentages)): 60%; % activity [13]: 100%
